Assay results from patent US6296785A, “Indeno-fused photochromic naphthopyrans” (PPG Industries Ohio, Inc., priority 2000, dated 2001).

How the values were obtained:
Format in all cases: physicochemical
[1] = photochromic response of test squares on an optical bench (sensitivity, saturation optical density, bleach rate); details: for ΔOD @ Saturation (Band A) / ΔOD @ Saturation (Band B): UV exposure 15 minutes; for ΔOD @ Saturation (Band A) / Sensitivity ΔOD/MIN (Band A) / ΔOD @ Saturation (Band B) / Sensitivity ΔOD/MIN (Band B): 72° F. (22.2° C.), polymer test square; for Sensitivity ΔOD/MIN (Band A) / Sensitivity ΔOD/MIN (Band B): first five (5) seconds of UV exposure, expressed per minute; for Bleach Rate T 1/2: measured at band B, room temperature (72° F., 22.2° C.) after removal of activating light
Method: (§1) Testing was done with the photochromic compounds described in Examples 1 through 20 and Comparative Examples 1 through 3 in the following manner. A quantity of photochromic compound calculated to yield a 1.5×10^-3 molal solution was added to a flask containing 50 grams of a monomer blend of 4 parts ethoxylated bisphenol A dimethacrylate (BPA 2EO DMA), 1 part poly(ethylene glycol) 600 dimethacrylate, and 0.033 weight percent 2,2'-azobis(2-methyl propionitrile) (AIBN). The photochromic compound was dissolved into the monomer blend by stirring and gentle heating, if necessary. After a clear solution was obtained, it was poured into a flat sheet mold having the interior dimensions of 2.2 mm×6 inches (15.24 cm)×6 inches (15.24 cm). The mold was sealed and placed in a horizontal air flow, programmable oven programmed to increase the temperature from 40° C. to 95° C. over a 5 hour interval, hold the temperature at 95° C. for 3 hours, lower it to 60° C. over a 2 hour interval and then hold it at 60° C. for 16 hours. After the mold was opened, the polymer sheet was cut using a diamond blade saw into 2 inch (5.1 centimeters) test squares.
(§2) The photochromic test squares of Part A were tested for photochromic response rates on an optical bench. Prior to testing on the optical bench, the photochromic test squares were exposed to 365 nanometer ultraviolet light for about 15 minutes to activate the photochromic compounds and then placed into a 76° C. oven for about 15 minutes to bleach the photochromic compounds. The test squares were then cooled to room temperature, exposed to fluorescent room lighting for at least 2 hours and then kept covered for at least 2 hours prior to testing on an optical bench maintained at 72° F. (22.2° C.). The bench was fitted with a 250 watt Xenon arc lamp, a remote controlled shutter, a copper sulfate bath acting as a heat sink for the arc lamp, a Schott WG-320 nm cut-off filter which removes short wavelength radiation; neutral density filter(s) and a sample holder in which the square to be tested was inserted. The power output of the optical bench, i.e., the dosage of light that the sample lens would be exposed to, was calibrated with a photochromic test square used as a reference standard. […] The UV-A detector was placed into the sample holder and the light output was measured. Adjustments to the power output were made by increasing or decreasing the lamp wattage or by adding or removing neutral density filters in the light path.
A monitoring, collimated beam of light from a tungsten lamp was passed through the square at a small angle (approximately 30°) normal to the square. After passing through the square, the light from the tungsten lamp was directed to a detector through Spectral Energy Corp. GM-200 monochromator set at the previously determined visible lambda max of the photochromic compound being measured. The output signals from the detector were processed by a radiometer.
Change in optical density (ΔOD) was determined by inserting a test square in the bleached state into the sample holder, adjusting the transmittance scale to 100%, opening the shutter from the Xenon lamp to provide ultraviolet radiation to change the test square from the bleached state to an activated (i.e., darkened) state, measuring the transmittance in the activated state, and calculating the change in optical density according to the formula: ΔOD=log(100/% Ta), where % Ta is the percent transmittance in the activated state and the logarithm is to the base 10.
The ΔOD/Min, which represents the sensitivity of the photochromic compound's response to UV light, was measured over the first five (5) seconds of UV exposure, then expressed on a per minute basis. The saturation optical density (ΔOD@ Saturation) was taken under identical conditions as the ΔOD/Min, except UV exposure was continued for 15 minutes. […]

[2] = lambda max (Vis) of activated photochromic test squares in a Varian Cary 3 uv-visible spectrophotometer; details: activated form in test square
Method: as §1
The lambda max (Vis) is the wavelength in the visible spectrum at which the maximum absorption of the activated (colored) form of the photochromic compound in a test square occurs. The lambda max (Vis) wavelengths reported in Table 1 were determined by testing the photochromic test square polymerizates of Part A in a Varian Cary 3 uv-visible spectrophotometer. The bleach rate (T 1/2) is the time interval in seconds for the absorbance of the activated form of the photochromic compound in the test squares to read one half the highest absorbance at room temperature (72° F., 22.2° C.) after removal of the source of activating light.
For each lambda max visible, the corresponding optical density (Δ OD/Min and Δ OD at saturation) for the desired compounds of the Examples and Comparative Examples are tabulated in Table 1 for the two bands (A and B) of peak absorption for each compound. Table 1 also includes the bleach rate (T 1/2) for each of the compounds as measured at band B. The ratings of the Relative Δ OD at Saturation Test for the bands A and B of each of the Examples and Comparative Examples are calculated as follows: Δ OD at saturation (Band A)/Δ OD at saturation (Band B)×100.

[3] = Relative ΔOD at Saturation Test; details: ΔOD at saturation (Band A)/ΔOD at saturation (Band B)×100
Description: In accordance with the present invention, it has now been discovered that certain novel indeno[2,1-f]naphtho[1,2-b]pyrans having two absorption bands in the activated (colored) state, an acceptable fade rate, high activated intensity, a high coloration rate and a rating of 80 or higher in the Relative ΔOD at Saturation Test may be prepared. The Relative ΔOD at Saturation Test is described in Example 21. The ratings of the test are defined herein as the result obtained when the optical density of band "A" is divided by the optical density of band "B" and multiplied by 100. It is believed that compounds having a rating of 80 or higher are most valuable for formulating neutral grays, greens and browns for commercial photochromic ophthalmic eyeware.
as §1, §2
Change in optical density (ΔOD) was determined by inserting a test square in the bleached state into the sample holder, adjusting the transmittance scale to 100%, opening the shutter from the Xenon lamp to provide ultraviolet radiation to change the test square from the bleached state to an activated (i.e., darkened) state, measuring the transmittance in the activated state, and calculating the change in optical density according to the formula: ΔOD=log(100/% Ta), where % Ta is the percent transmittance in the activated state and the logarithm is to the base 10. […]

Compound | ΔOD @ Saturation (Band A) [1] | Sensitivity ΔOD/MIN (Band A) [1] | ΔOD @ Saturation (Band B) [1] | Sensitivity ΔOD/MIN (Band B) [1] | Bleach Rate T 1/2 [1] [min] | λ MAX Vis (Band A) [2] [nm] | λ MAX Vis (Band B) [2] [nm] | Relative ΔOD at Saturation (rating) [3]
CCC1(OC)c2ccccc2-c2c1c1c(c3cc(OC)c(OC)cc23)OC(c2ccc(OC)cc2)(c2ccc(N3CCOCC3)cc2)C=C1 (stereo not shown) [Example 18, 3-(4-methoxyphenyl)-3-(4-morpholinophenyl)-6,7-dimethoxy-13-ethyl-13-methoxy-3H,13H-indeno[2,1-f]naphtho[1,2-b]pyran] | 0.27 | 0.21 ΔOD/MIN | 0.27 | 0.18 ΔOD/MIN | 1.43 | 483 | 604 | 100
CCC1(O)c2cc(OC)c(OC)cc2-c2c1c1c(c3cc(OC)c(OC)cc23)OC(c2ccc(OC)cc2)(c2ccc(N3CCOCC3)cc2)C=C1 (stereo not shown) [Example 12, 3-(4-methoxyphenyl)-3-(4-morpholinophenyl)-6,7,10,11-tetramethoxy-13-hydroxy-13-ethyl-3H,13H-indeno[2,1-f]naphtho[1,2-b]pyran] | 0.46 | 0.26 ΔOD/MIN | 0.43 | 0.27 ΔOD/MIN | 2.17 | 480 | 632 | 106
CCC1(O)c2ccccc2-c2c1c1c(c3cc(OC)c(OC)cc23)OC(c2ccc(OC)cc2)(c2ccc(N3CCOCC3)cc2)C=C1 (stereo not shown) [Example 17, 6,7-dimethoxy-3-(4-methoxyphenyl)-3-(4-morpholinophenyl)-13-hydroxy-13-ethyl-3H,13H-indeno[2,1-f]naphtho[1,2-b]pyran] | 0.25 | 0.21 ΔOD/MIN | 0.24 | 0.18 ΔOD/MIN | 1.4 | 480 | 603 | 104
CCC1(O)c2cc(OC)ccc2-c2c1c1c(c3cc(OC)ccc23)OC(c2ccc(OC)cc2)(c2ccc(OC)cc2)C=C1 (stereo not shown) [Comp. Ex. 2, 3,3-di(4-methoxyphenyl)-6,11-dimethoxy-13-hydroxy-13-ethyl-3H-13H-indeno[2,1-f]naphtho[1,2-b]pyran, reference compound] | 0.36 | 0.22 ΔOD/MIN | 0.51 | 0.32 ΔOD/MIN | 2.17 | 499 | 607 | 70
CCC1(O)c2cc(OC)c(OC)cc2-c2c1c1c(c3cc(OC)c(OC)cc23)OC(c2ccc(OC)cc2)(c2ccc(OC)cc2)C=C1 (stereo not shown) [Example 3, 3,3-di(4-methoxyphenyl)-6,7,10,11-tetramethoxy-13-hydroxy-13-ethyl-3H,13H-indeno[2,1-f]naphtho[1,2-b]pyran] | 0.62 | 0.34 ΔOD/MIN | 0.41 | 0.24 ΔOD/MIN | 2.58 | 460 | 623 | 151
COc1ccc(C2(c3ccc(N(C)C)cc3)C=Cc3c4c(c5cc(OC)c(OC)cc5c3O2)-c2ccccc2C4(C)C)cc1 (stereo not shown) [Example 10, 3-(4-methoxyphenyl)-3-(4-dimethylaminophenyl)-6,7-dimethoxy-13,13-dimethyl-3H,13H-indeno[2,1-f]naphtho[1,2-b]pyran] | 0.41 | 0.20 ΔOD/MIN | 0.50 | 0.28 ΔOD/MIN | 2.17 | 500 | 615 | 82
CCC1(O)c2cc(OC)c(OC)cc2-c2c1c1c(c3ccccc23)OC(c2ccc(OC)cc2)(c2ccc(OC)cc2)C=C1 (stereo not shown) [Comp. Ex. 3, 3,3-di(4-methoxyphenyl)-10,11-dimethoxy-13-hydroxy-13-ethyl-3H-13H-indeno[2,1-f]naphtho[1,2-b]pyran, reference compound] | 0.34 | 0.32 ΔOD/MIN | 0.48 | 0.48 ΔOD/MIN | 1.27 | 445 | 600 | 71
COc1ccc(C2(c3ccc(OC)cc3)C=Cc3c4c(c5cc(OC)c(OC)cc5c3O2)-c2ccccc2C4c2ccccc2)cc1 (stereo not shown) [Example 7, 3,3-di(4-methoxyphenyl)-6,7-dimethoxy-13-phenyl-3H,13H-indeno[2,1-f]naphtho[1,2-b]pyran] | 0.66 | 0.17 ΔOD/MIN | 0.43 | 0.16 ΔOD/MIN | 3.43 | 460 | 577 | 153
